Here are results for seven compounds from US20080097110A1, “Salt forms of substituted benzothienyl compounds” (priority 2006, published 2008).

Data set [1] is described as follows: Dynamic vapor sorption (DVS) testing of salt forms. It counts as physicochemical. The protocol:
Dynamic vapor sorption (DVS) testing was performed on several salt forms and sorption and desorption results under various relative humidity (RH) conditions are shown in Table 3.

The nature of data set [2]: Equilibrium solubility testing of salt forms. It counts as physicochemical. How it is done:
Solubility testing was performed on several salt forms and results for free compound (mg) in media (ml) (represented as mg/ml) at equilibrium solubility are shown in Table 4. SIF refers to simulated intestinal fluid.

Consider `CO.CP(=O)(O)C(C(=O)N/C=C/c1ccc(F)c(F)c1)c1csc2ccc(Cl)cc12` (centres unmarked) [Form A], for which the Sorption is listed as 0-30% RH: 0.34% in data set [1] (0-30% RH), 0-90% RH: 2.94% in data set [1] (0-90% RH) and 30-90% RH: 2.60% in data set [1] (30-90% RH). In addition, the Desorption in data set [1] (30-0% RH) is recorded as 30-0% RH: 7.14%; in data set [1] (90-30% RH), 90-30% RH: 1.48%. Moreover, the “Equilibrium solubility, free compound (mg) in media (ml)” value was 5.7 mg/mL in data set [2] (media 0.1N HCL, pH 1.50 (A), 1.40 (Compound 1b), 1.51 (B1)); 46.5 mg/mL in data set [2] (media 0.1N NaOH, pH 4.47 (A), 11.78 (Compound 1b), 8.88 (B1)); 18.7 mg/mL in data set [2] (media SIF (simulated intestinal fluid), pH 4.78 (A), 7.85 (Compound 1b), 7.65 (B1)).
Regarding `CP(=O)(O)C(C(=O)N/C=C/c1ccc(F)c(F)c1)c1csc2ccc(Cl)cc12.NC(CO)(CO)CO` (centres unmarked) [Form B1], the “Equilibrium solubility, free compound (mg) in media (ml)” value in data set [2] (pH 1.5) turned out to be 1.7 mg/mL; in data set [2] (pH 4.47) it was 42.2 mg/mL; in data set [2] (pH 4.78), 14.6 mg/mL.
As to `CP(=O)(O)C(C(=O)N/C=C/c1ccc(F)c(F)c1)c1csc2ccc(Cl)cc12.NC(CO)(CO)CO` (centres unmarked) [Form B2], the Sorption in data set [1] (0-90% RH) is given as 0-90% RH: 2.085%. Moreover, the Desorption in data set [1] (90-0% RH) was 90-0% RH: 2.231%.
For the compound `CNC[C@H](O)[C@@H](O)[C@H](O)[C@H](O)CO.CP(=O)(O)C(C(=O)N/C=C/c1ccc(F)c(F)c1)c1csc2ccc(Cl)cc12` (centres unmarked) [Form C2], the Sorption was 0-80% RH: 3.68% in data set [1] (0-80% RH), 0-90% RH: 5.52% in data set [1] (0-90% RH) and 80-90% RH: 1.84% in data set [1] (80-90% RH). Further, the Desorption in data set [1] (10-0% RH) is recorded as 10-0% RH: 2.75%; in data set [1] (90-0% RH), 90-0% RH: 6.66%; in data set [1] (90-10% RH), 90-10% RH: 3.91%. The “Solubility (remained in solution; equilibrium solubility could not be determined)” value in data set [2] (media not stated) is greater than 232 mg/mL.
Take `CP(=O)([O-])C(C(=O)N/C=C/c1ccc(F)c(F)c1)c1csc2ccc(Cl)cc12.[K+]` (centres unmarked) [Form F1]: the Sorption is 0-60% RH: 0.00% in data set [1] (0-60% RH); 0-90% RH: 11.35% in data set [1] (0-90% RH); 60-70% RH: 0.30% in data set [1] (60-70% RH); 70-80% RH: 2.46% in data set [1] (70-80% RH); 80-90% RH: 8.59% in data set [1] (80-90% RH). Further, in data set [1] (90-0% RH), the Desorption is reported as 90-0% RH: 16.81%.
Regarding `CP(=O)([O-])C(C(=O)N/C=C/c1ccc(F)c(F)c1)c1csc2ccc(Cl)cc12.[K+]` (centres unmarked) [Form F2], the Sorption in data set [1] (0-60% RH) is listed as 0-60% RH: 0.00%; in data set [1] (0-90% RH), 0-90% RH: 11.35%; in data set [1] (60-70% RH), 60-70% RH: 0.30%; in data set [1] (70-80% RH), 70-80% RH: 2.46%; in data set [1] (80-90% RH), 80-90% RH: 8.59%. The Desorption in data set [1] (90-0% RH) is on record as 90-0% RH: 16.81%.
Turning to `CP(=O)([O-])C(C(=O)N/C=C/c1ccc(F)c(F)c1)c1csc2ccc(Cl)cc12.[K+]` (centres unmarked) [Form F3], the Sorption in data set [1] (0-60% RH) was 0-60% RH: 0.00%; in data set [1] (0-90% RH), 0-90% RH: 11.35%; in data set [1] (60-70% RH), 60-70% RH: 0.30%; in data set [1] (70-80% RH) it was 70-80% RH: 2.46%; in data set [1] (80-90% RH) it was 80-90% RH: 8.59%. Further, the Desorption in data set [1] (90-0% RH) was 90-0% RH: 16.81%.
